“Also recorded” adds a separate entry of the source.
Experiments:
Assay type in all cases: cell-based, human
SURF1-mutant neurons = assay: Neurite outgrowth in SURF1-mutant neurons (MAP2 high-content imaging)
Experimental: The effect of Sertaconazole in human neurons carrying mutations in the gene SURF1 was measured. Hit compounds were filtered and selected to test their effect on neuronal morphogenesis. CRISPR/Cas9 engineered isogenic SURF1 mutant iPSCs on which neural commitment via overexpression of NGN2 was forced were used.
(§1) FIG. 28A depicts quantification of total neurite area in SURF1-mutant neurons. Each value represents the total neurite area in each well of a 96-well plate. Significant values were calculated using the non-parametric Mann-Whitney test and defective neurite development in SURF1-mutant cells was found FIG. 28B depicts quantification of total neurite area in SURF I-mutant neurons treated with either the DMSO vehicle or Sertaconazole at different concentrations. Neurite area was measured 5 days after induction of NGN2 overexpression, using high-content image analysis of MAP2-positive stained neuronal cells. Each value represents the total neurite area in each well of a 96-well plate.
Hit compounds were filtered and selected to test their effect on neuronal morphogenesis CRISPR/Cas9 engineered isogenic SURF1 mutant iPSCs on which neural commitment via overexpression of NGN2 was forced were used.
as §1, with “plate. […]” for “plate. Significant values were calculated using the non-parametric Mann-Whitney test and defective neurite development in SURF1-mutant cells was found”, “in SURF1-mutant” for “in SURF I-mutant”, “plate. […] FIG. 28C depicts representative images of SURF1 mutant neurons treated with either the DMSO vehicle or Sertaconazole.” for “plate.”

[1] = system: SURF1-mutant midbrain organoids; assay: Lactate released in the media by SURF1-mutant midbrain organoids; conditions: 0.1 μM, 1 week; vs DMSO; Mann-Whitney ****p<0.0001
Experimental: (§2) The effect of Sertaconazole in brain organoids carrying mutations in the gene SURF1 was measured.
(§3) FIG. 29A depicts lactate released in the media by SURF1-mutant midbrain organoids compared to isogenic control organoids. There is an aberrant increase of lactate release by SURF1-mutant organoids. FIG. 29B depicts quantification of lactate in the media of SURF1-mutant midbrain organoids that were treated with either DMSO vehicle or 0.1 μM Sertaconazole for 1 week. […] SURF1-mutant midbrain organoids were treated with either the DMSO vehicle or 0.1 μM Sertaconazole for 1 week. […] FIG. 29D depicts representative images of SURF1-mutant midbrain organoids treated with either the DMSO vehicle or Sertaconazole.
FIG. 29A depicts lactate released in the media by SURF1-mutant midbrain organoids compared to isogenic control organoids. The amount of lactate was quantified using a commercial kit. […] FIG. 29B depicts quantification of lactate in the media of SURF1-mutant midbrain organoids that were treated with either DMSO vehicle or 0.1 μM Sertaconazole for 1 week Media was collected and analyzed for lactate content using a commercial kit. […] SURF1-mutant midbrain organoids were treated with either the DMSO vehicle or 0.1 μM Sertaconazole for 1 week. […] Significant values were calculated using the non-parametric Mann-Whitney test. […]

[2] = system: SURF1-mutant midbrain organoids; assay: Neuronal staining (TH, MAP2, SMI312) in SURF1-mutant midbrain organoids
Experimental: as §2, §3
FIG. 29A depicts lactate released in the media by SURF1-mutant midbrain organoids compared to isogenic control organoids. The amount of lactate was quantified using a commercial kit. […] FIG. 29B depicts quantification of lactate in the media of SURF1-mutant midbrain organoids that were treated with either DMSO vehicle or 0.1 μM Sertaconazole for 1 week Media was collected and analyzed for lactate content using a commercial kit. […] SURF1-mutant midbrain organoids were treated with either the DMSO vehicle or 0.1 μM Sertaconazole for 1 week. The organoids were then fixed and stained with antibodies against Tyrosine Hydroxylase (TH) (a marker of dopaminergic neurons), MAP2 (a marker for neuronal dendrites), and SMI312 (a marker for neuronal axons). Significant values were calculated using the non-parametric Mann-Whitney test. […] Sertaconazole can represent an effective repositionable drug for children affected by Leigh syndrome.

[3] = system: GM28012 SURF1 fibroblasts; assay: Seahorse mitochondrial stress test, fibroblast cell line GM28012 (Experiment 3, single compounds); conditions: 48 h
Experimental: (§4) In order to evaluate selected compounds' impact on mitochondrial function in patient-derived fibroblasts compared to controls, three seahorse assays were conducted, Exp. 1: Fibroblast cell line GM28010—single compounds; Exp. 2. Fibroblast cell line GM28010—combination of compounds+ Single compounds; and Exp. 3: Fibroblast cell line GM28012—single compounds. Seahorse XF24 Extracellular Flux Analyzers continuously measure oxygen concentration and proton flux in the cell supernatant over time (Wu et al., 2007). The oxygen concentration and proton flux measurements are converted in OCR and ECAR values. This enables a direct quantification of mitochondrial respiration and glycolysis. The aim of the seahorse assays is to evaluate the impact of selected compounds on mitochondrial function in patient-derived fibroblasts compared to controls. Compounds used in the seahorse assays include posacanazole, sertaconazole, glabridin, zinglibroside (ginsenoside Z R1), AM281, cysteamine bitrartate, PF-06447475, losmapimod, telepravir, miltefosine, incyclinide, poziotinib, and methylene blue.
(§5) • Basal Oxygen Consumption (OCR): This reflects the cellular oxygen usage under basal conditions, encompassing both energy production (ATP turnover) and background oxygen leak from the mitochondria. • Oligomycin Injection: Oligomycin is a compound that inhibits ATP synthase, an enzyme crucial for ATP production within mitochondria. • Oligomycin-resistant Respiration: After oligomycin injection, minimal oxygen consumption persists, representing non-ATP linked oxygen leak from the mitochondria, often termed proton leak. • ATP-linked Respiration: This value is derived by subtracting the oligomycin-resistant respiration from the basal OCR. It signifies the oxygen consumption specifically linked to ATP production through mitochondrial oxidative phosphorylation. • Mitochondrial Bioenergetic Efficiency: This parameter reflects the percentage decrease in oxygen consumption observed after oligomycin injection, indicating the mitochondria's efficiency in utilizing oxygen for ATP generation. • FCCP Injection: FCCP is a chemical that disrupts the link between mitochondrial electron transport and ATP production. • Maximal Respiration: Following FCCP injection, the highest oxygen consumption rate is measured, representing the maximum capacity of the mitochondria to utilize oxygen for respiration. • Spare Respiratory Capacity: This parameter is calculated by subtracting basal respiration from maximal respiration.
GM28010 primary human fibroblasts obtained from patients with SURF1 Leigh syndrome were purchased from the Coriell Cell Repositories (Camden, N.J.; repository number GM28010).
GM00038 primary human fibroblasts purchased from the Coriell Cell Repositories (Camden, N.J., repository number GM00038) and were used as a healthy control.
Fibroblasts were grown in glucose according to recommendation. Cells were plated in XF96 plates in culture medium and plated at 10,000 cells/well. The day after plating, the cells were treated with the compounds. The treatments completed in glucose medium and galactose medium. The compounds were tested at for 48 hours. The compounds were incubated at (37 C, 5% CO2) until the day of the experiment. The fibroblasts were run at passage numbers: GM28012 SURF1 Fibroblasts P5.
The assay medium was 10 mM glucose or galactose DMEM supplemented with 2 mM glutamine and 1 mM pyruvate. Injection Ports for basal glucose: Port A: 2 μM oligomycin; Port B: 2.5 μM FCCP; Port C: 4 μM FCCP; and Port D: 2 μM rotenone and antimycin A.
The data were normalized to cell number per well after the run. The Hoechst-stained nuclei were counted with a Operetta High-Content Imager.

[4] = system: GM28010 SURF1 mutant fibroblasts; assay: Seahorse mitochondrial stress test, fibroblast cell line GM28010 (Experiment 1, single compounds); conditions: 48 h
Experimental: as §4
Fibroblast cell line GM28010 is a primary human fibroblast cell line obtained from patients with SURF1 Leigh syndrome. It was purchased from the Coriell Cell Repositories (Camden, NJ, repository number GM28010). Cell line GM00038 was used as a healthy control for GM28010 and is a primary human fibroblast purchased from the Coriell Cell Repositories (Camden, NJ, repository number GM00038).
Fibroblasts were grown in glucose according to recommendation.
Cells were plated in XF96 plates in culture medium and were plated at 10,000 cells/well.
The day after plating, cells were treated with the compounds in Table 1. The treatments were completed in glucose medium and galactose medium. The compounds were tested at for 48 hours. The compounds were incubated at (37 C, 5% CO2) until the day of the experiment.
*Fibroblasts were run at passage numbers: GM28010 SURF1 Fibroblasts P5; GM00038F controls P9.
• Assay Medium: 10 mM glucose or galactose DMEM supplemented with 2 mM glutamine and 1 mM pyruvate. • Injection Ports for basal glucose: Port A: 2 μM oligomycin; Port B: 2.5 μM FCCP; Port C: 4 μM FCCP; and Port D: 2 μM rotenone and antimycin A.
Data were normalized to cell number per well after the run. The Hoechst-stained nuclei were counted with the Operetta High-Content Imager.
as §5

[5] = glucose and galactose conditions

## Clc1ccc(C(Cn2ccnc2)OCc2csc3c(Cl)cccc23)c(Cl)c1 (stereo not shown) [Sertaconazole, sertaconazole]
SURF1-mutant neurons; 5 days after NGN2 induction, vs DMSO, Mann-Whitney **p<0.01
  total neurite area (defective neurite development in SURF1-mutant cells): correction of defective neurite development
SURF1-mutant neurons; FIG. 28
  neuromorphogenesis defects in SURF1-mutant neurons: ameliorates neuromorphogenesis defects
SURF1-mutant neurons; NGN2-induced SURF1 mutant neurons, FIG. 28
  rescue of neurite outgrowth capacity: dose-dependent rescue of neurite outgrowth capacity
[1]
  amount of lactate released to the media: reduced the aberrant release of lactate; also recorded: decreases the aberrant amount of lactate
[2]; 0.1 μM, 1 week, vs DMSO
  amount of TH-positive dopaminergic neurons: increased the amount of TH-positive dopaminergic neurons; also recorded: increase in TH neurons was evident but did not reach statistical significance
  overall neuronal branching organization: rescued the overall neuronal branching organization
[2]; 0.1 μM, 1 week, vs DMSO, Mann-Whitney *p<0.05
  amount of neuronal processes: corrected the increased the amount of neuronal processes
[2]; FIG. 29
  neuromorphogenesis and lactate defects in SURF1-mutant midbrain organoids: ameliorates neuromorphogenesis and lactate defects
[3]; [5]
  respiration: decreased respiration
[3]; higher concentrations
  ATP production through glycolysis: increased ATP production through glycolysis; also recorded: lower concentration; ↑ATP
[4]
  ATP production: no effect on ATP production
[4]; all concentrations
  maximal OCR: ↓ maximal OCR@ all conc;
[4]; [5]
  respiration: did not result in major changes

Reference: US20260315436A1, “METHOD OF TREATING DISORDERS WITH SURF1 MALFUNCTION” (Cure Mito Foundation, priority 2023, published 2026)
